Source: US9943500B2, “Methods of treating topical microbial infections” (LUODA PHARMA PTY LIMITED, priority 2013, dated 2018)
In brackets after ≈: the same amount, converted by molar mass.

Key:
[1] = system: methicillin-sensitive and methicillin-resistant strains of Staphylococcus; experiment: Minimum bactericidal concentration determination, Staphylococcus isolates (Example 1)
Description: Following determination of the MIC using the 96 well MIC plate, a variation of the drop plate method was used to determine minimum bactericidal concentration (MBC) for each of the test compounds. These were analysed using samples taken from the MIC plate following incubation. […] Each concentration was pipetted in duplicate with duplicates being pipetted on an inner ring of drops. The plates were incubated at 37° C. overnight and assessed the following day for growth. The MBC was defined as the concentration at which 99.9% of colonies were eradicated, which was visually assessed by a lack of growth on the agar where the drop was placed.

[2] = system: methicillin sensitive and methicillin-resistant staphylococci; experiment: Minimum inhibitory concentration assay, 42 Staphylococcus isolates (Example 1); type: cell-based
Description: Forty-two isolates of Staphylococcus of varying species and strain type were collected from isolate collections. Biochemical testing including coagulase, latex agglutination testing for protein A, Vogues-Proskauer tests and resistance to polymyxin B were used to identify the species of Staphylococcus. All isolates were also screened for resistance to various antimicrobials commonly used for the treatment of skin infections. This was performed using the disk diffusion method and resistance standards as outlined by the CLSI. The following antimicrobials were used: amoxicillin-clavulanic acid (30 μg), cephalothin (30 μg), clindamycin (2 μg), enrofloxacin (5 μg), erythromycin (15 μg), gentamicin (10 μg), imipenem (10 μg), oxacillin (1 μg), penicillin G (10 units), tetracycline (30 μg), 1:19 trimethoprim-sulfamethoxazole (25 μg) and vancomycin (30 μg).
Minimum inhibitory concentration tests were performed according to CLSI Standards (CLSI 2012). 90 μL of one of the test compound solutions, or ampicillin, was added to the end column of a 96 well plate that contained 90 μL of CAMHB in each well. The solutions were then serially diluted across the row, leaving 2 columns for positive and negative controls (FIG. 2). A bacterial suspension was prepared by adding fresh colonies obtained from an overnight culture on Sheep Blood Agar (SBA) to a 9.1 g/L saline solution. This suspension was adjusted to a concentration of between 4×10^8 and 5×10^8 CFU/mL. […] 1 mL of this suspension was added to 9 mL of saline before being added to all wells, excluding the negative control wells, in 10 μL volumes giving a final concentration of between 4×10^5 and 5×10^5 CFU/mL in each well. The tests were then incubated for 24 hours at 37° C. and then assessed both visually and using OD readings from a microplate reader at a wavelength of 600 nm. These tests were performed in duplicate but repeated if discrepancies were observed.
The minimum inhibitory concentration (MIC) was determined to be the lowest concentration of antibiotic that prevented growth of bacteria both visually and using OD readings. Direct statistical comparisons between the test compounds and ampicillin could not be performed in light of confidential information restrictions, such as restrictions on disclosure of information relating to the compound structure, such as molecular weight. Instead, MIC values were collated and used to determine the lowest concentration of each compound that was effective against 50% and 90% of isolates, referred to as the MIC50 and MIC90 respectively. These values as well as the range of MIC values were then used for direct comparisons between test compounds and for general comparisons with ampicillin.

[3] = system: ATCC 49775 reference strain; experiment: Macrodilution time-kill assay (viable counts); settings: 24 hours; all concentrations tested
Description: (§1) Due to the detection limit of the OD measurements, the time-kill assays were also performed in macrodilution. In 15 mL tubes, 9 mL volumes of the test compounds in CAMHB were prepared at one, four and eight times the MIC concentration and 9 mL volumes of ampicillin were prepared in CAMHB at one and four times the MIC. 1 mL of a 4 to 5×10^6 bacterial suspension (as prepared for MIC testing) was added to each of the tubes as well as a growth control tube containing only 9 mL of CAMHB. These tubes were incubated at 37° C. in an orbital shaker rotating at 100 rpm for 24 hours. At 0, 1, 4, 8, 12 and 24 hours after addition of the bacteria, 100 μL samples were removed from each tube and serial diluted in 9.1 g/L saline solution. The dilutions were then plated in duplicate onto plate count agar and incubated for 24 hours at 37° C. After incubation, viable counts were obtained from the number of colonies visible on the agar and these were used to calculate the number of CFU/mL at each time point. For the macrodilution time-kill analysis, only the ATCC 49775 reference strain and MRSA 9 were assessed in order to further investigate the antibacterial activity against methicillin-resistant strains. These macrodilution time-kill assays were independently repeated and bactericidal activity was defined as a ≥3 log decrease in the number of CFU/mL.

[4] = system: MRSA 9; experiment: Macrodilution time-kill assay (viable counts); settings: 24 hours; all concentrations tested
Description: as §1

[5] = system: 51 Australian bovine mastitis isolates, primarily S. aureus, S. agalactiae and S. uberis; experiment: Minimum inhibitory concentration assay, bovine mastitis isolates (Example 3); type: cell-based; settings: all 51 isolates; read-out: MIC90
Excerpt: Fifty-one dairy bovine mastitis isolates, encompassing a variety of bacterial species, were isolated from milk samples collected from dairy farms in rural South Australia by the University of Adelaide Ambulatory Clinic. Cellular morphology observed from Gram stains and catalase testing was used to differentiate Staphylococcus, Streptococcus and Corynebacterium species from Gram-negative species. Further biochemical testing including coagulase, Lancefield grouping, esculin hydrolysis and CAMP tests were used to identify the isolates to species level. Where biochemical test results were not definitive in identifying species, amplification and sequencing of the 16S ribosomal RNA gene was used to confirm the identity of the isolates.
Minimum inhibitory concentration tests were performed in the manner outlined by the CLSI (CLSI 2012). Test compounds were dispensed into a 96-well microtitre tray containing 90 μl of CAMHB in 90 μl volumes and serial diluted to obtain a concentration gradient ranging from 128 μg/ml to 0.25 μg/ml (see FIG. 24). For Streptococcus species, CAMHB was replaced with a CAMHB supplement with 4% lysed-sheep blood (4% LSB:CAMHB). 4% LSB:CAMHB was prepared by mixing 5 ml sheep blood to 5 ml milliQ water, and repeated freezing at −20° C. and thawing, followed by centrifuged for 20 min at 7000 rpm. 7 ml of the supernatant was removed and added to 93 mL of CAMB.
Bacterial suspensions were prepared by emulsifying fresh colonies obtained from an overnight culture on Sheep Blood Agar (SBA) in 4 mls of 9.1 g/l physiological saline to an optical density read at 600 nm (OD600 nm) between 1.00 and 1.20. Standardised bacterial suspensions were diluted 1:10 in physiological saline and dispensed into all wells, excluding the negative control wells, in 10 μL volumes giving a final concentration of between 4×10^5 and 5×10^5 CFU/mL in each well. 96-well microtitre trays were incubated for 24 hours at 37° C. in 5% CO2 and then assessed both visually and using OD readings from a microplate reader at a wavelength of 600 nm. These tests were performed in duplicate and repeated if discrepancies in MIC values were observed between replicates.
The minimum inhibitory concentration (MIC) was determined to be the lowest concentration of antibiotic that prevented growth of bacteria both visually and using OD readings. MIC values were collated and used to determine the lowest concentration of each compound effective against 50% and 90% of isolates, known as the MIC50 and MIC90 respectively. These values as well as the range of MIC values were then used for direct comparisons between test compounds and for general comparisons with ampicillin.

[6] = system: ATCC 49775 reference strain; experiment: Microdilution time-kill assay (optical density); settings: 48 hour period; one, four and eight times the MIC
Description: Time-kill assays were performed according to the M26-A guidelines of the CLSI, with modifications. The test compounds and ampicillin were serial diluted in CAMHB across the rows of a 96 well plate and a bacterial suspension was prepared and added in the same manner as the MIC testing. The 96 well plates were then incubated at 37° C. for 48 hours being removed at specific time points and OD for the positive control wells as well as one, four and eight times the MIC of the compound specific to the strain being tested were assessed using a spectrophotometer at a wavelength of 600 nm. The time points assessed were 0, 1, 2, 4, 8, 12, 24 and 48 hours after the addition of the bacterial suspension to the wells. Each test compound was tested in triplicate while ampicillin was tested in duplicate and this test was independently repeated. […] One strain from each of the categories of Staphylococcus in the isolate collection (methicillin-sensitive, methicillin resistant and coagulase negative) were selected as well as the ATCC reference strain for comparison. These strains were strains MSS 1, MSS 11, MRSA 9 and the ATCC 49775 reference strain.

SMILES: CC[C@@H](C(=O)[C@@H](C)[C@@H](O)[C@H](C)CCc1ccc(C)c(O)c1C(=O)O)[C@H]1O[C@](CC)([C@H]2CC[C@](O)(CC)[C@H](C)O2)C[C@@H]1C [LP 1369, Lasalocid]
- bactericidal activity (MBC testing) ([1]; lower concentrations): some bactericidal activity in lower concentrations
- MBC50 rank among test compounds ([1]; methicillin-sensitive isolates): lowest MBC50 values
- strain type for which bactericidal activity was more consistent ([1]; methicillin-sensitive versus methicillin-resistant strains): more consistently for methicillin-sensitive strains
- MIC50 and MIC90 values compared with ampicillin [2]: considerably lower than ampicillin
- decrease in the number of viable bacteria [3]: < 3 log10
- decrease in the number of viable bacteria [4]: < 3 log10
- MIC90 [5]: 4 µg/mL (≈ 6.77 µM)
- growth (optical density) compared to growth control [6]: prevented the growth
